In PMC10747034 (Tropical Medicine and Infectious Disease, 2023):
“And” between values parts separate entries of the source, which are not always exact repeats. Equal entries are not always repeated. “Also recorded” adds a separate entry of the source. Where two headings read alike, the source gives them in different places.

What was measured:
T. gondii tachyzoites = assay: Ultrastructural analysis through transmission electron microscopy; type: cell-based, Toxoplasma gondii; details: 48 h
Description: T-25 cm^2 flasks for cell culture with confluent monolayers of NHDF were infected with freshly egressed tachyzoite in a ratio of 10:1 parasite per cell for 2 h of interaction. The flasks were washed and fresh RPMI was added for another two hours. After this, the compounds were added and infected cells were treated for 48 h. The sample fixation and processing for microscopy were performed as previously described.

NHDF cells = assay: Cytotoxicity assay (MTS, 7 days); type: cell-based, Human; details: for CC50: MTS, read-out: Cytotoxicity against NHDF (7 Days) CC50
Description: (§1) For that, 96-well tissue plates containing NHDF cells were treated with different concentrations of compounds up to 10 µM for seven days. Control cells were incubated with 0.5% DMSO. At the end of the treatment, cell viability was then analyzed through the colorimetric method of MTS (Promega, Madison, WI, USA). […] Data were analyzed using GraphPad Prim 8.0 software. IC50 and CC50 calculations were performed by fitting the values of proliferation/viability in percentage to a non-linear curve followed by dose–response inhibition analysis through log(inhibitor) vs. normalized response.

[1] = system: Toxoplasma gondii tachyzoites of RH strain; assay: Forty-eight-hour antiproliferative assay; type: cell-based; details: 48 h
Description: NDHF cell monolayers were plated in a 24-well tissue plate containing coverslips, and after confluency was reached, cells were infected with a ratio of 5:1 parasite/host cells with freshly egressed RH strain tachyzoites for two hours. Then, cells were washed twice with phosphate-buffered saline, pH 7.4 (PBS), to remove non-invaded parasites and incubated with a complete medium for two hours more. After this time, infected cells were treated for 48 h with different concentrations of selected compounds, based on the IC50 obtained through plaque assay. At the end of the experiment, the cells were washed with PBS, stained with Bouin for 10 min, washed with 70% alcohol, and stained with solutions 2 and 3 of the Fast Panoptic kit for 60 and 10 s, respectively. Two hundred infected cells were quantified per slide using the 100× objective of a Leica DM500 optical microscope, stratifying the number of infected and non-infected cells and the amount of tachyzoite in each infected cell. The proliferation index is the ratio of the product of the total amount of tachyzoites and the percentage of infected cells by the total number of cells.

[2] = system: T. gondii tachyzoites (apicoplast); assay: Immunofluorescence assay of apicoplast loss (anti-CPN60); type: cell-based, Toxoplasma gondii; details: 1 µM, 24 h
Description: Anti-CPN60 (kindly provided by Dr. Boris […], University of Georgia, USA) was used to label the apicoplast luminal protein CPN60 at a dilution of 1:2000. DAPI (5 μg/mL; Sigma-Aldrich) was used to label the DNA. After labeling, the coverslips were mounted onto slides using Prolong gold (Life Technologies, Eugene, OR, USA), and samples were examined on an Invitrogen EVOS fluorescence microscope.

[3] = system: Toxoplasma gondii tachyzoites of RH strain; assay: Plaque assay (7 days) in NHDF monolayers infected with T. gondii; type: cell-based; details: 7 days of treatment, two independent experiments
Description: After NHDF reached confluency, each well was replaced with fresh medium containing one compound at a concentration of 1 µM, and then infected with 1000 newly egressed tachyzoites from RH strain [29]. Screening at 1 μM is recommended by MMV. As a control, infected cells were incubated with complete medium and 0.01% DMSO [29]. The plates were then kept in an incubator at 37 °C in a humid atmosphere with 5% CO2 for seven days. After this time, cultures were fixed with 70% ethanol and stained with crystal violet to observe the plates.
For that, 12-well plates containing a monolayer of NHDF were infected with 600 tachyzoites of the RH strain of T. gondii and treated with different concentrations for seven days. IC50s of compounds were calculated using GraphPad Prism 8.0 software.
Data were analyzed using GraphPad Prim 8.0 software. IC50 and CC50 calculations were performed by fitting the values of proliferation/viability in percentage to a non-linear curve followed by dose–response inhibition analysis through log(inhibitor) vs. normalized response.

[4] = system: Toxoplasma gondii tachyzoites of RH strain; assay: Post-treatment recovery (washout) assay; type: cell-based; details: 3 days of treatment, 7 days recovery without drug; 0.001 to 1 µM tested
Description: NHDF monolayers in 12-well plates were infected with 5000 newly egressed tachyzoites from RH strain and then treated for 3 days with drug concentrations of 0.001 to 1 µM. After treatment, the medium with drugs was removed, and the cells were washed twice and incubated with a fresh medium without drugs for an additional 7 days to allow the remaining parasites (if still viable after treatment) to grow. The plates were then kept in an incubator at 37 °C in a humid atmosphere with 5% CO2 throughout the treatment.

T. gondii Me49 strain = details: read-out: IC50 against T. gondii Me49 strain; cited from earlier work
T. gondii RH strain = details: read-out: IC50 against T. gondii RH strain; cited from earlier work
[5] = Cytotoxicity assay (MTS, 7 days); type: cell-based, Human; details: human, NHDF cells, MTS, read-out: Cytotoxicity against NHDF (7 Days) CC50
Description: as §1

Balamuthia Mandrillaris = system: Balamuthia Mandrillaris; parameters: method as in PMID 32560115; details: read-out: IC50 against Balamuthia Mandrillaris; cited from earlier work
[6] = concentrations up to 10 µM, two independent experiments
[7] = ND = 100% viability up to 10 µM
[8] = Toxoplasma gondii, 1 µM, read-out: Inhibition of parasite proliferation

For Nc1nc(Nc2ccc3nc(-c4ccc(F)cc4)cc(N)c3c2)cc(-c2ccccc2)n1 [MMV1593541], the “Ultrastructural alterations on tachyzoites (TEM)” value (“Ultrastructural alterations” for short) (T. gondii tachyzoites; 0.5 µM) was “induced the formation of extensive cytoplasm vacuolization”, the CC50 (NHDF cells; [6]) was 2540 nM and the “Inhibition of T. gondii proliferation” value ([1]; 125 nM) was “more than 50%”. The “Inhibition of parasite proliferation” value ([1]; 0.25 µM) was “around 60%”.
For Cn1cc(NC(=O)c2cc(NC(=O)c3ccc(/C=C/c4cnc5ccccc5c4)cc3)cn2C)cc1C(=O)NCCN1CCOCC1 [MMV1634391], the “Frequency of vacuoles (4 or 8 parasites) with at least one parasite presenting apicoplast loss” value [2] was “higher than 30%” and the CC50 (NHDF cells; [7]) was > 10000 nM.
Compound Cc1nc2ccc(Oc3ccccc3)cc2c2c1CCN2CCc1ccccc1 [MMV1634399] has an IC50 [3] of 920.3 ± 0.1 nM and a CC50 (NHDF cells; [6]) of 24100 nM.
For COc1ccc2sc3c(c2c1)NC(C)CNC3=O (stereo not shown) [MMV1782115], the IC50 [3] was ≤ 200 nM and 161 nM, the CC50 (NHDF cells; [6]) was 9430 nM and the “Inhibition of parasite proliferation” value ([1]; 1 µM) was “more than 60%”.
In the case of CCc1nc(N)nc(N)c1-c1ccc(Cl)cc1 [PYR, pyrimethamine], the “Concentration that abolished parasite proliferation recovery (no plaques)” value [4] is reported as > 1 µM and the “Concentrations at which monolayer lysis and plaque areas were seen after washout” value [4] is reported as “all concentrations”.
In the case of OCCC#Cc1nc(-c2ccc(F)cc2)c(-c2ccncc2)n1CCCc1ccccc1 [RWJ-67657], the IC50 (T. gondii Me49 strain) is given as 800 nM, the “Ultrastructural alterations” value (T. gondii tachyzoites; 1 µM) is given as “induced an extensive vacuolization (asterisks) in T. gondii and myelin-like bodies” and the IC50 ([3]; Toxoplasma gondii, NHDF, 168 h) is given as 412 ± 21.7 nM. For the same compound, the IC50 (T. gondii RH strain) was 5000 nM, the CC50 at 7 days [5, 6] was 12600 nM and the “SI (Selectivity Index, CC50 NHDF cells/IC50 T. gondii)” value (NHDF cells) was 31. For the same compound, the “Inhibition of parasite proliferation” value ([1]; 1 µM) was 59.5% and the inhibition at 1 µM [1, 8] was > 60%.
For C=C[C@]1(C)C[C@@H](OC(=O)CS[C@@H]2C[C@H]3CC[C@@H](C2)N3C)[C@]2(C)[C@H](C)CC[C@]3(CCC(=O)[C@H]32)[C@@H](C)[C@@H]1O [Retapamulin], the IC50 [3] was < 100 nM, the “Frequency of vacuoles (4 or 8 parasites) with at least one parasite presenting apicoplast loss” value [2] was “higher than 30%” and the CC50 at 7 days [5, 6] was 9980 nM. For the same compound, the “SI (Selectivity Index, CC50 NHDF cells/IC50 T. gondii)” value (NHDF cells) was 270, the “Inhibition of parasite proliferation” value ([1]; 1 µM) was “more than 50%” and the inhibition at 1 µM [1, 8] was > 60%.
With COc1cc(C)c2c(Oc3cccc(C(F)(F)F)c3)c(OC)cc(NC(C)CCCN)c2n1 (stereo not shown) [Tafenoquine] the IC50 ([3]; Toxoplasma gondii, NHDF, 168 h) was 896.9 ± 0.1 nM, the CC50 at 7 days [5, 6] was 16300 nM and the “SI (Selectivity Index, CC50 NHDF cells/IC50 T. gondii)” value (NHDF cells) was 18.
In the case of NC(=S)N/N=C/c1ncccc1N [Triapine], the IC50 ([3]; Toxoplasma gondii, NHDF, 168 h) is reported as 717.7 ± 0.1 nM, the CC50 at 7 days [5, 6] is reported as 2800 nM and the “SI (Selectivity Index, CC50 NHDF cells/IC50 T. gondii)” value (NHDF cells) is reported as 4. The inhibition at 1 µM [1, 8] was > 60%.
For COc1cc(NCc2ccc3nc(N)nc(N)c3c2C)cc(OC)c1OC [Trimetrexate], the “Concentrations at which monolayer lysis and plaque areas were seen after washout” value [4] was 0.001 to 0.1 µM, the CC50 at 7 days [5, 6] was 11900 nM and the “SI (Selectivity Index, CC50 NHDF cells/IC50 T. gondii)” value (NHDF cells) was 3046. The inhibition at 0.015 µM ([1]; Toxoplasma gondii, 15 nM, read-out: Inhibition of tachyzoite proliferation) was > 90% and the “Inhibition of T. gondii proliferation” value ([1]; concentrations close to 2 nM) was “approximately 50%”.
For CN1CCN(Cc2ccc(-c3cnc4[nH]cc(-c5ccc6[nH]ccc6c5)c4c3)cc2)CC1 [URMC-099-C], the IC50 (Balamuthia Mandrillaris) is listed as 5350 nM, the “Ultrastructural alterations” value (T. gondii tachyzoites; 1 µM) is listed as “induced an extensive vacuolization (asterisks) in T. gondii and myelin-like bodies” and the CC50 at 7 days [5, 7] is listed as > 10000 nM. The inhibition at 1 µM [1, 8] was > 60%.
With O=C(/C=C\n1cnc(-c2cc(C(F)(F)F)cc(C(F)(F)F)c2)n1)NNc1ccccn1 [Verdinexor] the “Ultrastructural alterations” value (T. gondii tachyzoites; 0.25 µM) was “caused a drastic effect on the division of the parasite; also recorded: caused extensive vacuolization; also recorded: induced mitochondrial alterations”, the IC50 [3] was 70 ± 24.4 nM and the IC50 ([3]; listed as verdinexor) was ≤ 200 nM. For the same compound, the CC50 at 7 days [5, 6] was 2860 nM, the inhibition at 0.25 µM ([1]; Toxoplasma gondii, 0.25 µM, read-out: Inhibition of parasite proliferation) was > 80% and the inhibition at 1 µM [1, 8] was 99%.
